Test results as given in patent publication US4321265A, “7α-Methoxycephalosporins” (Toyama Chemical Co., Ltd., priority 1977, dated 1982).
In brackets after ≈: the same amount, converted by molar mass.

What was measured:
Experiment in all cases: Minimum inhibitory concentration (MIC), Heart Infusion agar
Format in all cases: cell-based
Klebsiella spp. Y-72 = conditions: SPP.Y72; Klebsiella spp. Y-72; 10^6 cells/ml; 20 hours, 37° C.; read-out: minimum inhibitory concentration (MIC)
Procedure: (§1) Antibacterial activities of the representative compounds (Ib) of the 7α-methoxycephalosporins according to this invention are shown in Table 1. [drawing 20]
(§2) The figures given in Table 1 represent the minimum inhibitory concentration (MIC in mcg/ml) of each compound, which was determined according to the method described in "Chemotherapy (Society of Chemotherapy, Japan), Vol. 16, 98-99 (1968)": A culture obtained by cultivating the test bacterium in a Heart Infusion broth (Eiken Kagaku Co.) was inoculated into a Heart Infusion agar medium (Eiken Kagaku Co.). After 20 hours of the incubation at 37° C., the growth of the bacterium was inspected to determine the minimum inhibitory concentration (MIC in mcg/ml). The inoculation rate of the bacterium was 10^4 cells/plate (10^6 cells/ml).
(§3) (1) Minimum inhibitory concentration (MIC in mcg/ml).

Citrobacter N-7 = conditions: N7; Citrobacter N-7; 10^6 cells/ml; 20 hours, 37° C.; read-out: minimum inhibitory concentration (MIC)
Procedure: as §1, §2, §3

E. coli NIHJ = conditions: Escherichia coli; E. coli NIHJ; 10^6 cells/ml; 20 hours, 37° C.; read-out: minimum inhibitory concentration (MIC)
Procedure: as §1, §2, §3

Ser. marcescens IID620 = conditions: Serratia marcescens; Ser. marcescens IID620; 10^6 cells/ml; 20 hours, 37° C.; read-out: minimum inhibitory concentration (MIC)
Procedure: as §1, §2, §3

Prot. vulgaris GN-76 = conditions: Proteus vulgaris, GN76; Prot. vulgaris GN-76; 10^6 cells/ml; 20 hours, 37° C.; read-out: minimum inhibitory concentration (MIC)
Procedure: as §1, §2, §3

K. pneumoniae Y-50 = conditions: Klebsiella pneumoniae, Y50; K. pneumoniae Y-50; 10^6 cells/ml; 20 hours, 37° C.; read-out: minimum inhibitory concentration (MIC)
Procedure: as §1, §2, §3

Ps. aeruginosa IFO-3445 = conditions: Pseudomonas aeruginosa, IFO3445; Ps. aeruginosa IFO-3445; 10^6 cells/ml; 20 hours, 37° C.; read-out: minimum inhibitory concentration (MIC)
Procedure: as §1, §2, §3

[1] = tested on: Acinetobacter caloaceticus A-6; conditions: A6; Acinetobacter caloaceticus A-6; 10^6 cells/ml; 20 hours, 37° C.; read-out: minimum inhibitory concentration (MIC)
Procedure: as §1, §2, §3

[2] = tested on: S. aureus F-19 (Penicillinase-producing bacterium); conditions: Staphylococcus aureus; S. aureus F-19; 10^6 cells/ml; 20 hours, 37° C.; read-out: minimum inhibitory concentration (MIC)
Procedure: as §1, §2, §3

[3] = tested on: C. freundii GN-346 (Cephalosporinase-producing bacterium); conditions: Citrobacter freundii, GN346; C. freundii GN-346; 10^6 cells/ml; 20 hours, 37° C.; read-out: minimum inhibitory concentration (MIC)
Procedure: as §1, §2, §3

Ps. aeruginosa S-68 = conditions: Pseudomonas aeruginosa, S68; Ps. aeruginosa S-68; 10^6 cells/ml; 20 hours, 37° C.; read-out: minimum inhibitory concentration (MIC)
Procedure: as §1, §2, §3

Ent. cloacae IID977 = conditions: Enterobacter cloacae; Ent. cloacae IID977; 10^6 cells/ml; 20 hours, 37° C.; read-out: minimum inhibitory concentration (MIC)
Procedure: as §1, §2, §3

Ser. marcescens W-8 = conditions: Serratia marcescens, W8; Ser. marcescens W-8; 10^6 cells/ml; 20 hours, 37° C.; read-out: minimum inhibitory concentration (MIC)
Procedure: as §1, §2, §3

Ser. marcescens W-35 = conditions: Serratia marcescens, W35, 20 h, Ser. marcescens W-35; 10^6 cells/ml; 20 hours, 37° C. (Table 1); read-out: minimum inhibitory concentration (MIC)
Procedure: as §1
as §2, with “The inoculation rate of the bacterium was 10^4 cells/plate (10^6 cells/ml).” left out
as §3

Row | Compound | MIC (Klebsiella spp. Y-72) [µg/mL] | MIC (Citrobacter N-7) [µg/mL] | MIC (E. coli NIHJ) [µg/mL] | MIC (Ser. marcescens IID620) [µg/mL] | MIC (Prot. vulgaris GN-76) [µg/mL] | MIC (K. pneumoniae Y-50) [µg/mL] | MIC (Ps. aeruginosa IFO-3445) [µg/mL] | MIC [1] [µg/mL] | MIC [2] [µg/mL] | MIC [3] [µg/mL] | MIC (Ps. aeruginosa S-68) [µg/mL] | MIC (Ent. cloacae IID977) [µg/mL] | MIC (Ser. marcescens W-8) [µg/mL] | MIC (Ser. marcescens W-35) [µg/mL]
1 | CCN1CCN(C(=O)NC(C(=O)N[C@]2(OC)C(=O)N3C(C(=O)O)=C(CSc4nnnn4CC(=O)NO)CS[C@@H]32)c2cccs2)C(=O)C1=O (some centres unmarked) | 100 (≈ 138 µM) | 50 (≈ 69 µM) | ≤ 0.1 | 0.78 (≈ 1.08 µM) | 0.78 (≈ 1.08 µM) | 1.56 (≈ 2.15 µM) | 12.5 (≈ 17.2 µM) | 1.56 (≈ 2.15 µM) | 25 (≈ 34.5 µM) | ≥ 200 | 25 (≈ 34.5 µM) | 200 (≈ 276 µM) | 100 (≈ 138 µM) | 200 (≈ 276 µM)
2 | CCN1CCN(C(=O)NC(C(=O)N[C@]2(OC)C(=O)N3C(C(=O)O)=C(CSc4nnnn4C)CS[C@@H]32)c2ccco2)C(=O)C1=O (some centres unmarked) | 6.25 (≈ 9.62 µM) | – | ≤ 0.1 | ≤ 0.1 | 0.78 (≈ 1.2 µM) | 0.2 (≈ 0.308 µM) | 12.5 (≈ 19.2 µM) | 12.5 (≈ 19.2 µM) | 6.25 (≈ 9.62 µM) | 25 (≈ 38.5 µM) | 25 (≈ 38.5 µM) | 25 (≈ 38.5 µM) | 100 (≈ 154 µM) | 12.5 (≈ 19.2 µM)
3 | CCN1CCN(C(=O)NC(C(=O)N[C@]2(OC)C(=O)N3C(C(=O)O)=C(CSc4nnnn4CC(N)=O)CS[C@@H]32)c2ccco2)C(=O)C1=O (some centres unmarked) | – | – | ≤ 0.1 | ≤ 0.1 | 1.56 (≈ 2.25 µM) | 0.2 (≈ 0.289 µM) | 12.5 (≈ 18 µM) | – | 6.25 (≈ 9.02 µM) | – | – | 25 (≈ 36.1 µM) | – | 6.25 (≈ 9.02 µM)
4 | CCN1CCN(C(=O)NC(C(=O)N[C@]2(OC)C(=O)N3C(C(=O)O)=C(CSc4nnnn4CCO)CS[C@@H]32)c2ccco2)C(=O)C1=O (some centres unmarked) | – | – | ≤ 0.1 | ≤ 0.1 | 1.56 (≈ 2.3 µM) | 0.2 (≈ 0.294 µM) | 12.5 (≈ 18.4 µM) | – | 6.25 (≈ 9.2 µM) | – | – | 25 (≈ 36.8 µM) | – | –
5 | C=Cn1nnnc1SCC1=C(C(=O)O)N2C(=O)[C@](NC(=O)C(NC(=O)N3CCN(CC)C(=O)C3=O)c3ccco3)(OC)[C@H]2SC1 (some centres unmarked) | – | – | ≤ 0.1 | ≤ 0.1 | 3.13 (≈ 4.73 µM) | 0.2 (≈ 0.302 µM) | 25 (≈ 37.8 µM) | – | 3.13 (≈ 4.73 µM) | – | – | 25 (≈ 37.8 µM) | – | –
6 | CCN1CCN(C(=O)NC(C(=O)N[C@]2(OC)C(=O)N3C(C(=O)O)=C(CSc4nnnn4C)CS[C@@H]32)c2csc(N)n2)C(=O)C1=O (some centres unmarked) | 1.56 (≈ 2.29 µM) | 1.56 (≈ 2.29 µM) | ≤ 0.1 | ≤ 0.1 | 0.78 (≈ 1.14 µM) | 0.2 (≈ 0.293 µM) | 12.5 (≈ 18.3 µM) | 25 (≈ 36.7 µM) | 3.13 (≈ 4.59 µM) | 50 (≈ 73.3 µM) | 25 (≈ 36.7 µM) | 25 (≈ 36.7 µM) | 100 (≈ 147 µM) | –
7 | CCN1CCN(C(=O)NC(C(=O)N[C@]2(OC)C(=O)N3C(C(=O)O)=C(CSc4nnnn4CC(N)=O)CS[C@@H]32)c2csc(N)n2)C(=O)C1=O (some centres unmarked) | – | – | ≤ 0.1 | ≤ 0.1 | 1.56 (≈ 2.15 µM) | – | 12.5 (≈ 17.2 µM) | 12.5 (≈ 17.2 µM) | 3.13 (≈ 4.32 µM) | – | – | – | – | –
8 | CCN1CCN(C(=O)NC(C(=O)N[C@]2(OC)C(=O)N3C(C(=O)O)=C(CSc4nnc(C)s4)CS[C@@H]32)c2csc(N)n2)C(=O)C1=O (some centres unmarked) | – | – | ≤ 0.1 | 0.39 (≈ 0.559 µM) | 3.13 (≈ 4.49 µM) | – | 25 (≈ 35.8 µM) | 25 (≈ 35.8 µM) | 6.25 (≈ 8.96 µM) | – | – | – | – | –
9 | CCN1CCN(C(=O)NC(C(=O)N[C@]2(OC)C(=O)N3C(C(=O)O)=C(COC(C)=O)CS[C@@H]32)c2csc(N)n2)C(=O)C1=O (some centres unmarked) [OCOCH3] | – | – | ≤ 0.1 | 0.39 (≈ 0.623 µM) | 3.13 (≈ 5 µM) | – | 25 (≈ 40 µM) | 25 (≈ 40 µM) | 6.25 (≈ 9.99 µM) | – | – | – | – | –
